In ChEMBL document CHEMBL3877300, “Design, synthesis, docking studies and biological evaluation of novel dihydro-1,3,5-triazines as human DHFR inhibitors” (Eur J Med Chem, 2017):

Columns and labels:
Mus musculus [1] = assay: Toxicity in BALB/c nude mouse xenografted with human A549 cells assessed as body weight at 2 mg/kg, ip administered 14 times in 22 days measured on day 11 post dose (reference value: 24.99 +/- 0.97 g); assay type: organism-based; conditions: in vivo, 528 h
Mus musculus [2] = assay: Toxicity in BALB/c nude mouse xenografted with human A549 cells assessed as body weight at 2 mg/kg, ip administered 14 times in 22 days measured on day 15 post dose (reference value: 25.41 +/- 1.04 g); assay type: organism-based; conditions: in vivo, 528 h
[3] = Antitumor activity against human A549 cells xenografted in BALB/c nude mouse assessed as tumor volume at 2 mg/kg, ip administered 14 times in 22 days measured on day 1 post dose (reference value: 117.71 +/- 7.29 mm3); assay type: functional
[4] = Antitumor activity against human A549 cells xenografted in BALB/c nude mouse assessed as tumor growth inhibition at 2 mg/kg, ip administered 14 times in 22 days measured on day 4 post dose relative to control; assay type: functional; conditions: read-out: TGI
Mus musculus [5] = assay: Toxicity in BALB/c nude mouse xenografted with human A549 cells assessed as body weight at 2 mg/kg, ip administered 14 times in 22 days measured on day 22 post dose (reference value: 25.59 +/- 1.16 g); assay type: organism-based; conditions: in vivo, 528 h
[6] = Antitumor activity against human A549 cells xenografted in BALB/c nude mouse assessed as tumor growth inhibition at 2 mg/kg, ip administered 14 times in 22 days measured on day 11 post dose relative to control; assay type: functional; conditions: read-out: TGI
[7] = Antitumor activity against human A549 cells xenografted in BALB/c nude mouse assessed as tumor growth inhibition at 2 mg/kg, ip administered 14 times in 22 days measured on day 8 post dose relative to control; assay type: functional; conditions: read-out: TGI
[8] = Antitumor activity against human A549 cells xenografted in BALB/c nude mouse assessed as tumor volume at 2 mg/kg, ip administered 14 times in 22 days measured on day 22 post dose (reference value: 912.28 +/- 140.04 mm3); assay type: functional
[9] = Antitumor activity against human A549 cells xenografted in BALB/c nude mouse assessed as tumor volume at 2 mg/kg, ip administered 14 times in 22 days measured on day 4 post dose (reference value: 207.73 +/- 56.48 mm3); assay type: functional
Mus musculus [10] = assay: Toxicity in BALB/c nude mouse xenografted with human A549 cells assessed as body weight at 2 mg/kg, ip administered 14 times in 22 days measured on day 18 post dose (reference value: 25.66 +/- 1.16 g); assay type: organism-based; conditions: in vivo, 528 h
[11] = Antitumor activity against human A549 cells xenografted in BALB/c nude mouse assessed as tumor volume at 2 mg/kg, ip administered 14 times in 22 days measured on day 11 post dose (reference value: 373.93 +/- 59.98 mm3); assay type: functional
[12] = Antiproliferative activity against human MDA-MB-231 cells after 72 hrs by MTT assay; assay type: functional, cell-based; conditions: MDA-MB-231, 72 h, read-out: IC50
[13] = Antiproliferative activity against human HepG2 cells after 72 hrs by MTT assay; assay type: functional, cell-based; conditions: HepG2, 72 h
[14] = Antitumor activity against human A549 cells xenografted in BALB/c nude mouse assessed as tumor volume at 2 mg/kg, ip administered 14 times in 22 days measured on day 8 post dose (reference value: 288.71 +/- 54.75 mm3); assay type: functional
[15] = Antitumor activity against human A549 cells xenografted in BALB/c nude mouse assessed as tumor growth inhibition at 2 mg/kg, ip administered 14 times in 22 days measured on day 18 post dose relative to control; assay type: functional; conditions: read-out: TGI
Mus musculus [16] = assay: Toxicity in BALB/c nude mouse xenografted with human A549 cells assessed as body weight at 2 mg/kg, ip administered 14 times in 22 days measured on day 1 post dose (reference value: 24.73 +/- 1.33 g); assay type: organism-based; conditions: in vivo, 528 h
cells [17] = conditions: Homo sapiens, A549, 72 h
Description: Antiproliferative activity against human A549 cells after 72 hrs by MTT assay

cells [18] = conditions: Homo sapiens, HCT-116, 72 h
Description: Antiproliferative activity against human HCT116 cells after 72 hrs by MTT assay

Mus musculus [19] = assay: Toxicity in BALB/c nude mouse xenografted with human A549 cells assessed as body weight at 2 mg/kg, ip administered 14 times in 22 days measured on day 8 post dose (reference value: 25.19 +/- 1.38 g); assay type: organism-based; conditions: in vivo, 528 h
[20] = Antitumor activity against human A549 cells xenografted in BALB/c nude mouse assessed as tumor growth inhibition at 2 mg/kg, ip administered 14 times in 22 days measured on day 15 post dose relative to control; assay type: functional; conditions: read-out: TGI
[21] = Antiproliferative activity against human HL60 cells after 72 hrs by MTT assay; assay type: functional, cell-based; conditions: HL-60, 72 h
[22] = Antitumor activity against human A549 cells xenografted in BALB/c nude mouse assessed as tumor growth inhibition at 2 mg/kg, ip administered 14 times in 22 days measured on day 22 post dose relative to control; assay type: functional; conditions: 528 h, read-out: TGI
Mus musculus [23] = assay: Toxicity in BALB/c nude mouse xenografted with human A549 cells assessed as body weight at 2 mg/kg, ip administered 14 times in 22 days measured on day 4 post dose (reference value: 24.84 +/- 1.22 g); assay type: organism-based; conditions: in vivo, 528 h
[24] = Antitumor activity against human A549 cells xenografted in BALB/c nude mouse assessed as tumor volume at 2 mg/kg, ip administered 14 times in 22 days measured on day 15 post dose (reference value: 502.27 +/- 69.26 mm3); assay type: functional

Question: Which Activity (Mus musculus [1]) does the source give for CN(Cc1cnc2nc(N)nc(N)c2n1)c1ccc(C(=O)N[C@@H](CCC(=O)O)C(=O)O)cc1 [METHOTREXATE] here?
Answer: 23.98 g

Question: What about the Activity (Mus musculus [2]) of the same compound?
Answer: 21.85 g

Question: And the Activity [3]?
Answer: 115.14 mm3

Question: What about the inhibition in vivo at 2 mg/kg [4] of the same compound?
Answer: 24.6%

Question: And the Activity (Mus musculus [5])?
Answer: 21.4 g

Question: What about the inhibition in vivo at 2 mg/kg [6] of the same compound?
Answer: 29.2%

Question: What about the inhibition in vivo at 2 mg/kg [7] of the same compound?
Answer: 32.7%

Question: And the Activity [8]?
Answer: 440.75 mm3

Question: What about the Activity [9] of the same compound?
Answer: 153.09 mm3

Question: What about the Activity (Mus musculus [10]) of the same compound?
Answer: 21.62 g

Question: And the Activity [11]?
Answer: 223.6 mm3

Question: And the IC50 [12]?
Answer: 9490 nM

Question: And the IC50 [13]?
Answer: 410 nM

Question: What about the Activity [14] of the same compound?
Answer: 189.83 mm3

Question: And the inhibition in vivo at 2 mg/kg [15]?
Answer: 50.6%

Question: And the Activity (Mus musculus [16])?
Answer: 25.28 g

Question: And the IC50 (cells [17])?
Answer: 250 nM

Question: And the IC50 (cells [18])?
Answer: 750 nM

Question: What about the Activity (Mus musculus [19]) of the same compound?
Answer: 24.88 g

Question: And the inhibition in vivo at 2 mg/kg [20]?
Answer: 45%

Question: What about the IC50 [21] of the same compound?
Answer: 1090 nM

Question: And the inhibition in vivo at 2 mg/kg [22]?
Answer: 50.8%

Question: And the Activity (Mus musculus [23])?
Answer: 25.47 g

Question: What about the Activity [24] of the same compound?
Answer: 271.71 mm3
